# From PubChem BioAssay AID1259407 (Chemical Carcinogenesis Research Information System (CCRIS), 2018)
# Active and inactive are the calls of the source. No rule for the calls is given here.
# Test system: CCRIS mutagenicity, Ames/micronucleus/aberration tests
# Experiment: CCRIS mutagenicity studies
# [1] = Test System: AMES SALMONELLA TYPHIMURIUM, Strain/Indicator: TA98, Metabolic Activation: NONE, Method: STANDARD PLATE
# [2] = Test System: AMES SALMONELLA TYPHIMURIUM, Strain/Indicator: TA100, Metabolic Activation: NONE, Method: STANDARD PLATE
# [3] = Test System: AMES SALMONELLA TYPHIMURIUM, Strain/Indicator: TA1535, Metabolic Activation: NONE, Method: PREINCUBATION
# [4] = Test System: AMES SALMONELLA TYPHIMURIUM, Strain/Indicator: TA98, Metabolic Activation: NONE, Method: PREINCUBATION
# [5] = Test System: AMES SALMONELLA TYPHIMURIUM, Strain/Indicator: TA100, Metabolic Activation: NONE, Method: PREINCUBATION
# [6] = Test System: AMES SALMONELLA TYPHIMURIUM, Strain/Indicator: TA98, Metabolic Activation: RAT, LIVER, S-9, PCB, Method: PREINCUBATION
structure (smiles),measurement,setting,value
O=C([O-])c1ccc2ccccc2c1.[Mn+2].[O-]C(O)c1ccc2ccccc2c1,mutagenic call,"Test System: AMES SALMONELLA TYPHIMURIUM, Strain/Indicator: TA98, Metabolic Activation: HAMSTER, LIVER, S-9, AROCLOR 1254 (10%), Method: STANDARD PLATE",inactive; negative
same,mutagenic call,[1],inactive; negative
same,mutagenic call,"Test System: AMES SALMONELLA TYPHIMURIUM, Strain/Indicator: TA98, Metabolic Activation: RAT, LIVER, S-9, AROCLOR 1254 (10%), Method: STANDARD PLATE",inactive; negative
same,mutagenic call,"Test System: AMES SALMONELLA TYPHIMURIUM, Strain/Indicator: TA100, Metabolic Activation: HAMSTER, LIVER, S-9, AROCLOR 1254 (10%), Method: STANDARD PLATE",inactive; negative
same,mutagenic call,[2],inactive; negative
same,mutagenic call,"Test System: AMES SALMONELLA TYPHIMURIUM, Strain/Indicator: TA100, Metabolic Activation: RAT, LIVER, S-9, AROCLOR 1254 (10%), Method: STANDARD PLATE",inactive; negative
same,mutagenic call,"Test System: AMES SALMONELLA TYPHIMURIUM, Strain/Indicator: TA1535, Metabolic Activation: HAMSTER, LIVER, S-9, AROCLOR 1254 (10%), Method: STANDARD PLATE",inactive; negative
same,mutagenic call,"Test System: AMES SALMONELLA TYPHIMURIUM, Strain/Indicator: TA1535, Metabolic Activation: NONE, Method: STANDARD PLATE",inactive; negative
same,mutagenic call,"Test System: AMES SALMONELLA TYPHIMURIUM, Strain/Indicator: TA1535, Metabolic Activation: RAT, LIVER, S-9, AROCLOR 1254 (10%), Method: STANDARD PLATE",inactive; negative
same,mutagenic call,"Test System: AMES SALMONELLA TYPHIMURIUM, Strain/Indicator: TA1537, Metabolic Activation: HAMSTER, LIVER, S-9, AROCLOR 1254 (10%), Method: STANDARD PLATE",inactive; negative
same,mutagenic call,"Test System: AMES SALMONELLA TYPHIMURIUM, Strain/Indicator: TA1537, Metabolic Activation: NONE, Method: STANDARD PLATE",inactive; negative
same,mutagenic call,"Test System: AMES SALMONELLA TYPHIMURIUM, Strain/Indicator: TA1537, Metabolic Activation: RAT, LIVER, S-9, AROCLOR 1254 (10%), Method: STANDARD PLATE",inactive; negative
same,mutagenic call,"Test System: AMES SALMONELLA TYPHIMURIUM, Strain/Indicator: TA1538, Metabolic Activation: HAMSTER, LIVER, S-9, AROCLOR 1254 (10%), Method: STANDARD PLATE",inactive; negative
same,mutagenic call,"Test System: AMES SALMONELLA TYPHIMURIUM, Strain/Indicator: TA1538, Metabolic Activation: NONE, Method: STANDARD PLATE",inactive; negative
same,mutagenic call,"Test System: AMES SALMONELLA TYPHIMURIUM, Strain/Indicator: TA1538, Metabolic Activation: RAT, LIVER, S-9, AROCLOR 1254 (10%), Method: STANDARD PLATE",inactive; negative
Nc1ccc2cc3ccccc3nc2c1,mutagenic call,[3],inactive; negative
same,mutagenic call,"Test System: AMES SALMONELLA TYPHIMURIUM, Strain/Indicator: TA1535, Metabolic Activation: RAT, LIVER, S-9, TETRACHLOROBIPHENYL, Method: PREINCUBATION",active; positive
same,mutagenic call,"Test System: AMES SALMONELLA TYPHIMURIUM, Strain/Indicator: TA1537, Metabolic Activation: NONE, Method: PREINCUBATION",active; positive
same,mutagenic call,"Test System: AMES SALMONELLA TYPHIMURIUM, Strain/Indicator: TA1537, Metabolic Activation: RAT, LIVER, S-9, TETRACHLOROBIPHENYL, Method: PREINCUBATION",active; positive
same,mutagenic call,"Test System: AMES SALMONELLA TYPHIMURIUM, Strain/Indicator: TA1538, Metabolic Activation: NONE, Method: PREINCUBATION",active; positive
same,mutagenic call,"Test System: AMES SALMONELLA TYPHIMURIUM, Strain/Indicator: TA1538, Metabolic Activation: RAT, LIVER, S-9, TETRACHLOROBIPHENYL, Method: PREINCUBATION",active; positive
same,mutagenic call,"Test System: AMES SALMONELLA TYPHIMURIUM, Strain/Indicator: TA1975, Metabolic Activation: RAT, LIVER, S-9, TETRACHLOROBIPHENYL, Method: PREINCUBATION",inactive; negative
same,mutagenic call,"Test System: AMES SALMONELLA TYPHIMURIUM, Strain/Indicator: TA1977, Metabolic Activation: NONE, Method: PREINCUBATION",active; positive
same,mutagenic call,"Test System: AMES SALMONELLA TYPHIMURIUM, Strain/Indicator: TA1977, Metabolic Activation: RAT, LIVER, S-9, TETRACHLOROBIPHENYL, Method: PREINCUBATION",active; positive
same,mutagenic call,"Test System: AMES SALMONELLA TYPHIMURIUM, Strain/Indicator: TA1978, Metabolic Activation: RAT, LIVER, S-9, TETRACHLOROBIPHENYL, Method: PREINCUBATION",active; positive
CCOC(=O)CC(SP(=O)(OC)OC)C(=O)OCC (centres undefined),mutagenic call,"End Point: IN VITRO CHROMOSOMAL ABERRATIONS, Test System: CHO CELLS, Metabolic Activation: NONE",inactive; negative
same,mutagenic call,"Test System: AMES SALMONELLA TYPHIMURIUM, Strain/Indicator: TA97, Metabolic Activation: HAMSTER, LIVER, S-9, AROCLOR 1254 (10 OR 30%), Method: PREINCUBATION",inactive; negative
same,mutagenic call,"Test System: AMES SALMONELLA TYPHIMURIUM, Strain/Indicator: TA97, Metabolic Activation: NONE, Method: PREINCUBATION",inactive; negative
same,mutagenic call,"Test System: AMES SALMONELLA TYPHIMURIUM, Strain/Indicator: TA97, Metabolic Activation: RAT, LIVER, S-9, AROCLOR 1254 (10 OR 30%), Method: PREINCUBATION",inactive; negative
same,mutagenic call,"Test System: AMES SALMONELLA TYPHIMURIUM, Strain/Indicator: TA98, Metabolic Activation: HAMSTER, LIVER, S-9, AROCLOR 1254 (10 OR 30%), Method: PREINCUBATION",inactive; negative
same,mutagenic call,[4],inactive; negative
same,mutagenic call,[1],inactive; negative
same,mutagenic call,"Test System: AMES SALMONELLA TYPHIMURIUM, Strain/Indicator: TA98, Metabolic Activation: RAT, LIVER, S-9, AROCLOR 1254 (10 OR 30%), Method: PREINCUBATION",inactive; negative
same,mutagenic call,"Test System: AMES SALMONELLA TYPHIMURIUM, Strain/Indicator: TA98, Metabolic Activation: RAT, LIVER, S-9, Method: STANDARD PLATE",active; positive
same,mutagenic call,"Test System: AMES SALMONELLA TYPHIMURIUM, Strain/Indicator: TA100, Metabolic Activation: HAMSTER, LIVER, S-9, AROCLOR 1254 (10 OR 30%), Method: PREINCUBATION",inactive; negative
same,mutagenic call,[5],inactive; negative
same,mutagenic call,[2],active; positive
same,mutagenic call,"Test System: AMES SALMONELLA TYPHIMURIUM, Strain/Indicator: TA100, Metabolic Activation: RAT, LIVER, S-9, AROCLOR 1254 (10 OR 30%), Method: PREINCUBATION",inactive; negative
same,mutagenic call,"Test System: AMES SALMONELLA TYPHIMURIUM, Strain/Indicator: TA100, Metabolic Activation: RAT, LIVER, S-9, Method: STANDARD PLATE",inactive; negative
same,mutagenic call,"Test System: AMES SALMONELLA TYPHIMURIUM, Strain/Indicator: TA1535, Metabolic Activation: HAMSTER, LIVER, S-9, AROCLOR 1254 (10 OR 30%), Method: PREINCUBATION",inactive; negative
same,mutagenic call,[3],inactive; negative
same,mutagenic call,"Test System: AMES SALMONELLA TYPHIMURIUM, Strain/Indicator: TA1535, Metabolic Activation: RAT, LIVER, S-9, AROCLOR 1254 (10 OR 30%), Method: PREINCUBATION",inactive; negative
Cc1ccc([N+]#N)cc1,mutagenic call,[2],active; positive
same,mutagenic call,"Test System: AMES SALMONELLA TYPHIMURIUM, Strain/Indicator: TA102, Metabolic Activation: NONE, Method: STANDARD PLATE",active; positive
same,mutagenic call,"Test System: CHINESE HAMSTER V-79, Strain/Indicator: V-79/6-THIOGUANINE, Metabolic Activation: NONE",active; positive
Cc1cnc2cc3nc(N)n(C)c3c(C)c2n1,mutagenic call,[6],active; positive
same,mutagenic call,"Test System: AMES SALMONELLA TYPHIMURIUM, Strain/Indicator: TA98, Metabolic Activation: S-9",active; positive
same,mutagenic call,"Test System: AMES SALMONELLA TYPHIMURIUM, Strain/Indicator: TA98, Metabolic Activation: S-9, Method: PREINCUBATION",active; positive
same,mutagenic call,"Test System: AMES SALMONELLA TYPHIMURIUM, Strain/Indicator: YG1024, Metabolic Activation: RAT, LIVER, S-9, PCB, Method: PREINCUBATION",active; positive
same,mutagenic call,"Test System: AMES SALMONELLA TYPHIMURIUM, Strain/Indicator: YG1024, Metabolic Activation: S-9",active; positive
COCc1c(O)cc2c(c1O)C(=O)c1ccccc1C2=O,mutagenic call,[4],active; positive
same,mutagenic call,[6],active; positive
same,mutagenic call,[5],active; positive
same,mutagenic call,"Test System: AMES SALMONELLA TYPHIMURIUM, Strain/Indicator: TA100, Metabolic Activation: RAT, LIVER, S-9, PCB, Method: PREINCUBATION",active; positive
